# Reference: PubChem BioAssay AID1996
# Settings: buffer; pH 7.4; 200.0 µM
row,SMILES,solubility kinetic [µg/mL]
1,Cc1ccc(C(=O)CCC(=O)NC2=NCCS2)cc1,10.8
2,Cn1cccc1C(=O)NCC1CCCCC1,28
3,CC(=O)c1cccc(NC(=S)NC2CCCCCCC2)c1,6
4,Cc1csc(NC(=O)[C@@H]2CCCN2C(=O)c2cccs2)n1,44.2
5,COC(=O)c1csc(S(=O)(=O)N2CCOCC2)c1OC,> 48.2
6,O=C(CSCc1ccc(Cl)cc1)NCCSCc1ccco1,36.3
7,COc1ccccc1CN(C)C(=O)c1ccc(S(=O)(=O)Nc2c(C)n(C)n(-c3ccccc3)c2=O)cc1,> 78.1
8,O=c1c2ccccc2nc(-c2ccccc2)n1-c1ccccc1O,38.3
9,O=C(Nc1ccc(F)cc1)c1cccnc1,> 32.4
10,CCCCN(C)C(=O)c1ccc2c(c1)S(=O)(=O)c1ccccc1C2=O,> 53.6
11,COc1ccccc1CC(=O)NC12CC3CC(CC(C3)C1)C2,7.8
12,Cc1c(C(=O)c2ccccc2)c2ccccn2c1CCc1ccccn1,3.7
13,COc1cc(OC)c(C(=O)Nc2cccnc2)cc1OC,> 43.2
14,O=S(=O)(c1c(Cl)sc(Cl)c1Br)N1CCCC1,4.4
15,COc1ccc2[nH]c(C(=O)N3CCNCC3)cc2c1OC,36.2
16,CCOc1ccc(C(C)=O)cc1Cn1c(=O)oc2ccccc21,13.7
17,COC(=O)c1c(NC(=O)CCC(=O)O)sc(Cc2ccccc2)c1C,48.7
18,CN(Cc1ccco1)S(=O)(=O)c1csc(C(N)=O)c1,44.7
19,CCn1c2ccccc2c2cc(NC(=O)c3cc(C)on3)ccc21,2.3
20,CN(C(=S)NC(=O)c1ccccc1)C1CCCCC1,> 41.5

row,SMILES,solubility kinetic [µg/mL]
1,COc1cc(C)c(NC(=O)C(=S)NCc2ccccc2)cc1C,< 0.4
2,O=C1CSC(c2ccc(F)cc2)N1c1ccccc1F (stereo not given),36.8
3,Cc1ncc([N+](=O)[O-])n1CC(=O)Nc1ccc(F)c(Cl)c1,0.5
4,COc1cc(N)ccc1NC(=O)c1cc2ccccc2o1,> 42.3
5,CSc1nc(=S)n(-c2ccccc2)c(C)c1C(C)=O,41.7
6,NS(=O)(=O)c1ccc(NC(=O)c2cccc3ccccc23)cc1,3.1
7,CC1CC1C(=O)OCC(=O)Nc1cc(S(=O)(=O)N2CCCCC2)ccc1Cl (stereo not given),31.1
8,O=[N+]([O-])c1cc(C(F)(F)F)ccc1N1CCN(CCO)CC1,> 47.9
9,Cc1cc(C)nc(/N=C(\N)N2CCc3ccccc32)n1,37.1
10,Cc1ccccc1OCC(=O)Nc1ccc2oc(=O)ccc2c1,1.1
11,CC(=O)c1ccc(NC(=S)NN2C(C)CCCC2C)cc1 (stereo not given),> 45.8
12,CCOC(=O)CNC(=O)CNC(=O)c1ccc(OC(C)C)cc1,> 48.4
13,Brc1ccccc1CN1CCC(Cc2ccccc2)CC1,2.6
14,C#CC(CCN1CCCCC1)(OC)c1ccccc1.Cl (stereo not given),27.2
15,O=C(OCc1cncs1)c1ccccc1,> 32.9
16,Cc1cc(=O)[nH]c(SCC(=O)Nc2ccc3c(c2)OCCO3)n1,> 50
17,COCc1cc(C)nc(OC)c1C(N)=O,23.9
18,CN(CCO)CC(O)Cn1cnc2c1c(=O)n(C)c(=O)n2C.O=C(O)c1cccnc1 (stereo not given),> 65.2
19,OC1C2CN3CN(C2)CC1(c1ccccc1)C3 (stereo not given),> 34.5
20,Cc1ccc(-n2nc(-c3ccco3)cc2C(=O)O)cc1,> 40.2

row,SMILES,solubility kinetic [µg/mL]
1,O=C(O)C1CCN(C(=O)c2csc(-c3ccc4c(c3)CCO4)n2)CC1,> 53.8
2,Cc1cccc(Nc2ncccc2C(=O)O)c1C,> 36.3
3,COc1cccc2c(C)cc(N3CCCCCC3)nc12,33.2
4,O=C(c1cccs1)N1CCN=C1SCc1ccc(Cl)cc1,< 0.4
5,O=C(Nc1ccc(F)cc1)c1ccc(S(=O)(=O)N2CCCC2)cc1,4.4
6,Cc1cc(C)nc(SCCC(=O)Nc2ccccc2Cl)n1,> 48.3
7,COC(=O)c1sccc1NC(=S)N(C)C1CCCCC1,0.4
8,O=C(Nc1ccc(N2CCCCC2)cc1)c1ccc2ccccc2n1,< 0.2
9,COc1ccc(C2=NOC(C(=O)Nc3cccc(O)c3)C2)cc1 (stereo not given),22.8
10,N#CCCN(Cc1cccs1)C(=O)Nc1ccccc1,41.1
11,CCOC(=O)C1(Cc2cccc(Cl)c2)CCCN(CCO)C1 (stereo not given),47.9
12,CC(=O)Nc1cccc(NC(=O)Cc2cccs2)c1,28.4
13,O=C(COC(=O)c1ccc2ccccc2c1O)NCC(F)(F)F,2.5
14,CN(C)S(=O)(=O)c1cccc(NC(=O)c2ccc(N3CCCC3=O)cc2)c1,5.7
15,COc1ccc2nc(NC(=O)c3ccccc3O)sc2c1,0.7
16,O=C(CN1C(=O)NC2(CCCC2)C1=O)Nc1cc(S(=O)(=O)N2CCCCC2)ccc1Cl,65.8
17,O=C(COC(=O)c1ccccc1O)Nc1cc([N+](=O)[O-])ccc1Cl,< 0.4
18,CC1(C)CC(NC(=O)c2ccc(-c3ccc([N+](=O)[O-])cc3)o2)CC(C)(C)N1,41.1
19,O=S(=O)(Nc1ccc(-c2cnco2)cc1)c1ccccc1,43.6
20,COc1ccc(C(=O)NC(C)CCc2ccccc2)cc1 (stereo not given),41.9
